Source: paper PMC11873939, “Target Identification with Live-Cell Photoaffinity Labeling and Mechanism of Action Elucidation of ARN23765, a Highly Potent CFTR Corrector” (Journal of Medicinal Chemistry, 2025)

How the values were obtained:
F508del-CFTR = target: T1, F508del-CFTR (Homo sapiens, UniProt P13569, DEL508-508); test: HS-YFP functional assay in CFBE41o- cells stably overexpressing F508del-CFTR; assay type: cell-based; conditions: 24 h treatment
T1 construct: expressed in transfected cells
Procedure: These analogues were tested in the functional assay on the human bronchial epithelia-derived cell line, CFBE41o-, which stably overexpresses F508del-CFTR and the halide-sensitive yellow fluorescent protein (HS-YFP).[31] […]
(§1) HS-YFP-based assay for CFTR activity
(§2) Twenty-four hours after seeding on 96-well plates, CFBE41o- cells stably over-expressing F508del-CFTR and the HS-YFP were treated with test compounds at different concentrations in the 3 nM-10 µM range.1 Cells treated with vehicle alone (DMSO) and with ARN23765, respectively, served as negative and positive controls. The following day, cells were washed with PBS containing (in mM) 137 NaCl, 2.7 KCl, 8.1 Na2HPO4, 1.5 KH2PO4, 1.0 CaCl2, and 0.5 MgCl2. Cells were then incubated for 25 min with […] of PBS plus forskolin (20 µM) and VX-770 (1 µM) to maximally stimulate F508del-CFTR. Cells were then transferred to a microplate reader (FluoStar Galaxy; BMG Labtech, Offenburg, Germany) for CFTR activity determination. The plate reader was equipped with high-quality excitation (HQ500/20X: 500 ± 10 nm) and emission (HQ535/30M: 535 ± 15 nm) filters for YFP (Chroma Technology). Each assay comprised a continuous 14 s fluorescence reading, 2 s before and 12 s after injection of […] of an iodide-containing solution (PBS with Cl- replaced by I-; final I- concentration […]). Data were normalized to the initial background-subtracted fluorescence. To determine I- influx rate, the final 11 s of the data for each well were fitted with an exponential function to extrapolate initial slope (dF/dt). Reproducibility of results was confirmed by performing three independent experiments. […]

F508del/R1070W-CFTR = target: T2, F508del/R1070W-CFTR (Homo sapiens, UniProt P13569, DEL508-508/R1070W); test: FLIPR membrane potential assay of CFTR channel activity in transfected HEK293 cells; assay type: cell-based; conditions: HEK293, 24 h; ARN23765 10 nM, VX-661 3 μM
T2 construct: CFTR identification in pull-down studies and analysis of full-length CFTR in protein maturation assays; expressed in transfected cells; host or cells: HEK293 (transient)
Procedure: as §1
as §2, with “fluorescence.” for “fluorescence. To determine I- influx rate, the final 11 s of the data for each well were fitted with an exponential function to extrapolate initial slope (dF/dt). Reproducibility of results was confirmed by performing three independent experiments.”
(§3) Cell lysates or eluates from pull-down experiments were resolved by SDS-PAGE on 4-8 % tris-acetate gels (EA0378BOX, Life technologies) and were transferred into PVDF membranes (Immobilion-E IEVH00005, Millipore). […] Images were acquired with Chemidoc MP (BIO-RAD laboratories) and quantified with Image J software.
(§4) CFTR Channel function analysis by fluorometric imaging plate reader functional (FLIPR) assay FLIPR assay was performed as previously described.3 Briefly, HEK293 cells were seeded in 96-well plates (black, flat bottom, Corning) and transfected with mutated CFTR constructs. […]
(§5) µM) for 24 h at 30 °C or 37 °C. […] The plate was then read in a fluorescence plate reader (SpectraMax i3, Molecular Devices) at 37 °C (excitation: 530 nm, emission: 560 nm). […] CFTR-mediated depolarization was detected as an increase in fluorescence. […] The peak changes in fluorescence were normalized to fluorescence immediately […]

R170G-CFTR = target: T3, R170G-CFTR (Homo sapiens, UniProt P13569, R170G); test: as above; assay type: cell-based; conditions: HEK293, 24 h, 10 nM
T3 construct: CFTR identification in pull-down studies and analysis of full-length CFTR in protein maturation assays; expressed in transfected cells; host or cells: HEK293 (transient)
Procedure: as §1
as §2, with “fluorescence.” for “fluorescence. To determine I- influx rate, the final 11 s of the data for each well were fitted with an exponential function to extrapolate initial slope (dF/dt). Reproducibility of results was confirmed by performing three independent experiments.”
as §3, §4, §5

CFTR = system: CFTR; design: method as in PMID 32128418; conditions: HS-YFP assay; cited from earlier work

T1 sequence (P13569 with tags, fused parts or gaps DEL508-508): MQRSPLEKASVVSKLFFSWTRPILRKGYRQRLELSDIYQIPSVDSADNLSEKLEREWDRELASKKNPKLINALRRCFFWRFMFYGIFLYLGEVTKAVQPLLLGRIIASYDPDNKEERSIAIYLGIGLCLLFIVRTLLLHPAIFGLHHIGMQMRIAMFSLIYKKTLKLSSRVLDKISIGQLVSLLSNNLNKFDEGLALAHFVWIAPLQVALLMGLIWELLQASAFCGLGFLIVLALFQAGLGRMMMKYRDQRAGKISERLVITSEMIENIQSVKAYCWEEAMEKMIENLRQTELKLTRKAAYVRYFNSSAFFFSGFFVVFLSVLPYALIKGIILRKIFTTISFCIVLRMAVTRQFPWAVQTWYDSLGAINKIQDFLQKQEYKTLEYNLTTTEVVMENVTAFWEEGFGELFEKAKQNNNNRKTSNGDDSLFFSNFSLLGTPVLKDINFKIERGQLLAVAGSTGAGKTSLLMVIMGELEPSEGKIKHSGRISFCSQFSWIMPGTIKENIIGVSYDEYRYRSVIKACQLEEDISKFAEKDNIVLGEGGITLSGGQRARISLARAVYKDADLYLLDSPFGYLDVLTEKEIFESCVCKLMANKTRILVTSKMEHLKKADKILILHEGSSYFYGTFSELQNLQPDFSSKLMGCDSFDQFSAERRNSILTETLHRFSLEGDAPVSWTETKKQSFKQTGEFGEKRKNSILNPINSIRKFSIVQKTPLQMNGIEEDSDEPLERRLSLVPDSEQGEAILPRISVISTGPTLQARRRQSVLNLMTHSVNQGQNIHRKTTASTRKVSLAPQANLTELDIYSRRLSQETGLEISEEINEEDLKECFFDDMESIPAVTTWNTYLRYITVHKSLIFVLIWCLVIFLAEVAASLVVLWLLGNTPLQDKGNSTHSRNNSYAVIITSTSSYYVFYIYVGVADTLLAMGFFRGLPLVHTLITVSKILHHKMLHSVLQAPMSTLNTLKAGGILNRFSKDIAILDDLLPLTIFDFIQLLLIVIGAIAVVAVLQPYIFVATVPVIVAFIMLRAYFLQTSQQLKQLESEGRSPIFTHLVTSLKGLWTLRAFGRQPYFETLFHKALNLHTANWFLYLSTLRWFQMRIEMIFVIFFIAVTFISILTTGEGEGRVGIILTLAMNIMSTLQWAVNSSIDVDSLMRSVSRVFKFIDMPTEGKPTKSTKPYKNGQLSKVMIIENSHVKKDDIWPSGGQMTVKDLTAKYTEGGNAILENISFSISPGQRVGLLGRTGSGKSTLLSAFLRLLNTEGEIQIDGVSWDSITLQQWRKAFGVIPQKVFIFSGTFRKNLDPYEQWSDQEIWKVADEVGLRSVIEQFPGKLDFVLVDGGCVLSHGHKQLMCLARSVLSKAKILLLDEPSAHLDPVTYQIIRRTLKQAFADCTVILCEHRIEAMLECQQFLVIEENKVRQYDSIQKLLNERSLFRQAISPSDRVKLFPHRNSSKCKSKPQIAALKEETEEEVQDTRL
T3 sequence (P13569 whole entry R170G): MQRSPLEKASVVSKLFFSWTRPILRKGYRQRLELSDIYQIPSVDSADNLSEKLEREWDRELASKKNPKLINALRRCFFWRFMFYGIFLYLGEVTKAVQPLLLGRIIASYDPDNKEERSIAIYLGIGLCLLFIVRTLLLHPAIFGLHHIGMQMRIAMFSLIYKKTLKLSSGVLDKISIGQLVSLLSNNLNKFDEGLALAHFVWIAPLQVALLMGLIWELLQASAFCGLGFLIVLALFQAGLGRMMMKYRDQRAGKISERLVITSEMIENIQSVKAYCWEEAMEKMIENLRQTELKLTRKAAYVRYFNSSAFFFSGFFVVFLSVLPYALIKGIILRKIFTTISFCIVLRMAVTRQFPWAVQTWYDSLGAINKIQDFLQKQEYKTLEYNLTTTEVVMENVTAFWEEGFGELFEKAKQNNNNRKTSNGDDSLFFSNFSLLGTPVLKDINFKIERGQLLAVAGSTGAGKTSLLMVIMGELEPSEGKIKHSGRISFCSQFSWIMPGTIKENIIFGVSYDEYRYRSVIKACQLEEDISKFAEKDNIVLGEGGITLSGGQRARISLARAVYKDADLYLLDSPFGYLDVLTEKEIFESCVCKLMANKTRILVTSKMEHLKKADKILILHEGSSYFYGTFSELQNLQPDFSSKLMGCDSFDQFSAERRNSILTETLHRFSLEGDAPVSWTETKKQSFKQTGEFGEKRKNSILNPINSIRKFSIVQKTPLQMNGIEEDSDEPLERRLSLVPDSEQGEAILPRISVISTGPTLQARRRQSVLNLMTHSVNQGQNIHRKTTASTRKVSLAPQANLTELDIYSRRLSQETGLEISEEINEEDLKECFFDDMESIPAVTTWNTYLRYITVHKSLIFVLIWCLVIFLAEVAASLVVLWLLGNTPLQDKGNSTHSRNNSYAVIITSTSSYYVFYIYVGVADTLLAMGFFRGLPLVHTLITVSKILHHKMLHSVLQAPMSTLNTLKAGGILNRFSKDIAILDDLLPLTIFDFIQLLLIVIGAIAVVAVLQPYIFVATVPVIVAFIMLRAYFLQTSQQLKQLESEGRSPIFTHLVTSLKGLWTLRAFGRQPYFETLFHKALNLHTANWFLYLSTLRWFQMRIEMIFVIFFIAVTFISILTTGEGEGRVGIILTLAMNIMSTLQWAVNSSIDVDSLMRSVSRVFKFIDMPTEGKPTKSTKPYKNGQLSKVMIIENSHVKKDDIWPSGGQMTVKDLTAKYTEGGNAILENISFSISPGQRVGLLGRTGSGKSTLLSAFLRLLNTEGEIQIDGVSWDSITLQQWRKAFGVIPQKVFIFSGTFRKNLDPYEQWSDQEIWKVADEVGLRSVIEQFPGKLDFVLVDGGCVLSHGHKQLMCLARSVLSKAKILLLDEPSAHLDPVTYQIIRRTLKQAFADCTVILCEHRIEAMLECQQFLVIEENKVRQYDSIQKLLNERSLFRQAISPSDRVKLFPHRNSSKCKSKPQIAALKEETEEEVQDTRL
T2 sequence (P13569 with tags, fused parts or gaps DEL508-508/R1070W): as the sequence (P13569 with tags, fused parts or gaps DEL508-508) above, with R1069W counted along it

## CN(C(=O)c1cccc(-n2nc(C(F)(F)F)c3c2[C@@H](Oc2ccc(C(=O)O)cc2)CCC3)c1)c1ccc2c(c1)OC(F)(F)O2 [ARN23765]
F508del-CFTR; 3 nM-10 µM range
  EC50: < 3 nM
F508del-CFTR; values normalized to DMSO-incubated cells
  HS-YFP assay in CFBE41o- cells Emax: 2.7
F508del/R1070W-CFTR
  F508del/R1070W channel activity (FLIPR): further enhanced
R170G-CFTR
  R170G-CFTR activity (FLIPR): improving
CFTR
  Effect on the protein gating: no effect
